Test results from patent US20250034210A1, “DLL3 TARGETING PEPTIDES AND CONSTRUCTS THEREOF” (MARIANA ONCOLOGY INC., priority 2023, published 2025).
*1 amine or outer side, *2 acyl side, *3 side chain or, on linkers, in order; H or OH if unused. Where a SMILES comes first, the peptide text is derived from it. Bridges are numbered along the chain shown (N, C = ends). [ ]: non-standard residue; d: D form. The star is where a group is joined. ξ: configuration not given here. X2 = O=C(O)CN1CCN(CC(=O)O)CCN(CC(=O)NCCCOCCOCCOCCCN*)CCN(CC(=O)O)CC1; DOTA = O=C(O)CN1CCN(CC(=O)O)CCN(CC(=O)*)CCN(CC(=O)O)CC1; Trp(5-F) = N[C@@H](Cc1c[nH]c2ccc(F)cc12)C(=O)O; PEG8 = NCCOCCOCCOCCOCCOCCOCCOCCOCCC(=O)O; X1 = O=C(C[C@H]1CC[C@H](N[*:1])CC1)[*:2]; 1Nal = N[C@@H](Cc1cccc2ccccc12)C(=O)O; 2Nal = N[C@@H](Cc1ccc2ccccc2c1)C(=O)O; Suc = O=C(CCC(=O)[*:2])[*:1]; ξIle = CC[C@H](C)C(N)C(=O)O; Ahx = NCCCCCC(=O)O; ξP = O=C(O)C1CCCN1; Sar = CNCC(=O)O

These compounds were tested against T1, human DLL3 (Homo sapiens, UniProt Q9NYJ7) (assay: Affinity determination by Surface Plasmon Resonance (SPR), biotinylated human DLL3 immobilized on streptavidin sensor chip). Settings: 25° C., Biacore, 1:1 binding model.
T1 construct: biotin (biotinylated)
T1 sequence (Q9NYJ7 27-618): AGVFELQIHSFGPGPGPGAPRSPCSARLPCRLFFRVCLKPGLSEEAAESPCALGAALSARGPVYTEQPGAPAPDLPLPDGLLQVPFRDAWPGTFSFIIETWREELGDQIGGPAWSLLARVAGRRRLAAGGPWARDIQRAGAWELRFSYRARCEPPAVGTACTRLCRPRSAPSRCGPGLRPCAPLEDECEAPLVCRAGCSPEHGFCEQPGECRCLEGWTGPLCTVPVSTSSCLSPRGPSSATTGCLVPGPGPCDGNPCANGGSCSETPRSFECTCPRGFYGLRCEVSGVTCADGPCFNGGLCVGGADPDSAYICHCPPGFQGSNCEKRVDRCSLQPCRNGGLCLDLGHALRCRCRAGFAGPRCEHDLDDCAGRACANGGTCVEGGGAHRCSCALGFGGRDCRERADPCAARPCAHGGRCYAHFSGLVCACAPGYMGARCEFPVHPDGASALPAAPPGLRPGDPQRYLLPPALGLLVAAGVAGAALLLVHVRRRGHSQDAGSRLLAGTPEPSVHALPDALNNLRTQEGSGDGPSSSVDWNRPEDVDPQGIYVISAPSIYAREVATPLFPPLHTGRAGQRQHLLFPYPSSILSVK
Description: Affinity Determination by Surface Plasmon Resonance (SPR). SPR studies were performed on the compounds disclosed herein using the following protocol.
The binding affinity and binding kinetic parameters at 25° C. were determined using Biacore S200 or biacore 8K instrument. Biotinylated target ligand human DLL3 was immobilized on a streptavidin sensor chip. A reference surface was set up for nonspecific binding and refractive index changes. For analysis of the kinetics of interactions, varying concentrations of samples were injected at a flow rate of 100 μL/min using running buffer containing 20 mM phosphate buffer with 2.7 mM KCl, 137 mM NaCl, 0.05% Surfactant P20 and 2% DMSO. Sensorgram curves were fitted with 1:1 binding model, and affinity and kinetic parameters were obtained using Biacore Insight evaluation 4.0. software.

| SMILES | Kd |
| --- | --- |
| CC[C@H](C)[C@H](NC(=O)[C@@H](NC(=O)[C@H](Cc1c[nH]c2ccccc12)NC(=O)CN1CCN(CC(=O)O)CCN(CC(=O)O)CCN(CC(=O)O)CC1)[C@@H](C)O)C(=O)N[C@H]1CSSC[C@@H](C(=O)N[C@@H](Cc2c[nH]c3ccccc23)C(=O)N2CCC[C@H]2C(N)=O)NC(=O)[C@H](CC(=O)O)NC(=O)[C@H](Cc2cnc[nH]2)NC(=O)[C@H](Cc2c[nH]c3ccccc23)NC(=O)[C@H](CC(N)=O)NC(=O)[C@H](CC(N)=O)NC1=O [compound 17, DOTA-W-T-I-C(3)-N-N-W-H-D-C(3)-W-P-CONH2] ({DOTA}-WTICNNWHDCWP-NH2; disulfide 4-10) | 10 to 100 nM |
| CC[C@H](C)[C@H](NC(=O)[C@@H](NC(=O)[C@H](Cc1c[nH]c2ccccc12)NC(=O)C[C@H]1CC[C@H](NC(=O)CN2CCN(CC(=O)O)CCN(CC(=O)O)CCN(CC(=O)O)CC2)CC1)[C@@H](C)O)C(=O)N[C@H]1CSSC[C@@H](C(=O)N[C@@H](Cc2c[nH]c3ccccc23)C(=O)N2CCC[C@H]2C(N)=O)NC(=O)[C@H](CC(=O)O)NC(=O)[C@H](Cc2cnc[nH]2)NC(=O)[C@H](Cc2c[nH]c3ccccc23)NC(=O)[C@H](CC(N)=O)NC(=O)[C@H](CC(N)=O)NC1=O [compound 19, DOTA-CyHex-W-T-I-C(3)-N-N-W-H-D-C(3)-W-P-CONH2] ({DOTA}-[X1]WTICNNWHDCWP-NH2; disulfide 5-11) | 10 to 100 nM |
| CC[C@H](C)[C@H](NC(=O)[C@@H](NC(=O)[C@H](Cc1c[nH]c2ccccc12)NC(=O)CCOCCOCCOCCOCCOCCOCCOCCOCCNC(=O)CN1CCN(CC(=O)O)CCN(CC(=O)O)CCN(CC(=O)O)CC1)[C@@H](C)O)C(=O)N[C@H]1CSSC[C@@H](C(=O)N[C@@H](Cc2c[nH]c3ccccc23)C(=O)N2CCC[C@H]2C(N)=O)NC(=O)[C@H](CC(=O)O)NC(=O)[C@H](Cc2cnc[nH]2)NC(=O)[C@H](Cc2c[nH]c3ccccc23)NC(=O)[C@H](CC(N)=O)NC(=O)[C@H](CC(N)=O)NC1=O [compound 20, DOTA-PEG8-W-T-I-C(3)-N-N-W-H-D-C(3)-W-P-CONH2] ({DOTA-PEG8}-WTICNNWHDCWP-NH2; disulfide 4-10) | 10 to 100 nM |
| CC[C@H](C)[C@H](NC(=O)[C@@H](NC(=O)[C@H](Cc1c[nH]c2ccccc12)NC(=O)CNC(=O)CNC(=O)CCC(=O)NCCCOCCOCCOCCCNC(=O)CN1CCN(CC(=O)O)CCN(CC(=O)O)CCN(CC(=O)O)CC1)[C@@H](C)O)C(=O)N[C@H]1CSSC[C@@H](C(=O)N[C@@H](Cc2c[nH]c3ccccc23)C(=O)N2CCC[C@H]2C(N)=O)NC(=O)[C@H](CC(=O)O)NC(=O)[C@H](Cc2c[nH]cn2)NC(=O)[C@H](Cc2c[nH]c3ccccc23)NC(=O)[C@H](CC(N)=O)NC(=O)[C@H](CC(N)=O)NC1=O [compound 21] ({X2-Suc}-GGWTICNNWHDCWP-NH2; disulfide 6-12) | 1 to 10 nM |
| CC[C@H](C)[C@H](NC(=O)[C@@H](NC(=O)[C@H](Cc1c[nH]c2ccccc12)NC(=O)CN(C)C(=O)CN(C)C(=O)CN(C)C(=O)CN(C)C(=O)CN(C)C(=O)CN1CCN(CC(=O)O)CCN(CC(=O)O)CCN(CC(=O)O)CC1)[C@@H](C)O)C(=O)N[C@H]1CSSC[C@@H](C(=O)N[C@@H](Cc2c[nH]c3ccccc23)C(=O)N2CCCC2C(N)=O)NC(=O)[C@H](CC(=O)O)NC(=O)[C@H](Cc2cnc[nH]2)NC(=O)[C@H](Cc2c[nH]c3ccccc23)NC(=O)[C@H](CC(N)=O)NC(=O)[C@H](CC(N)=O)NC1=O (stereo partly drawn) [compound 22, DOTA-(Sar)5-W-T-I-C(3)-N-N-W-H-D-C(3)-W-P-CONH2] ({DOTA}-[Sar][Sar][Sar][Sar][Sar]WTICNNWHDCW[ξP]-NH2; disulfide 9-15) | 1 to 10 nM |
| CC[C@H](C)C(NC(=O)[C@@H](NC(=O)[C@H](Cc1c[nH]c2ccccc12)NC(=O)CCCCCNC(=O)CN1CCN(CC(=O)O)CCN(CC(=O)O)CCN(CC(=O)O)CC1)[C@@H](C)O)C(=O)N[C@H]1CSSC[C@@H](C(=O)N[C@@H](Cc2cccc3ccccc23)C(=O)N2CCC[C@H]2C(N)=O)NC(=O)[C@H](CC(=O)O)NC(=O)[C@H](Cc2cnc[nH]2)NC(=O)[C@H](Cc2c[nH]c3ccccc23)NC(=O)[C@H](CC(N)=O)NC(=O)[C@H](CC(N)=O)NC1=O (stereo partly drawn) [compound 54, DOTA-Ahx-W-T-I-C(3)-N-N-W-H-D-C(3)-(1Nal)-P-CONH2] ({DOTA-Ahx}-WT[ξIle]CNNWHDC[1Nal]P-NH2; disulfide 4-10) | 10 to 100 nM |
| CC[C@H](C)C(NC(=O)[C@@H](NC(=O)[C@H](Cc1c[nH]c2ccccc12)NC(=O)CCCCCNC(=O)CN1CCN(CC(=O)O)CCN(CC(=O)O)CCN(CC(=O)O)CC1)[C@@H](C)O)C(=O)N[C@H]1CSSC[C@@H](C(=O)N[C@@H](Cc2ccc3ccccc3c2)C(=O)N2CCC[C@H]2C(N)=O)NC(=O)[C@H](CC(=O)O)NC(=O)[C@H](Cc2cnc[nH]2)NC(=O)[C@H](Cc2c[nH]c3ccccc23)NC(=O)[C@H](CC(N)=O)NC(=O)[C@H](CC(N)=O)NC1=O (stereo partly drawn) [compound 55, DOTA-Ahx-W-T-I-C(3)-N-N-W-H-D-C(3)-(2Nal)-P-CONH2] ({DOTA-Ahx}-WT[ξIle]CNNWHDC[2Nal]P-NH2; disulfide 4-10) | 100 to 300 nM |
| CC[C@H](C)C(NC(=O)[C@@H](NC(=O)[C@H](Cc1c[nH]c2ccccc12)NC(=O)CCCCCNC(=O)CN1CCN(CC(=O)O)CCN(CC(=O)O)CCN(CC(=O)O)CC1)[C@@H](C)O)C(=O)N[C@H]1CSSC[C@@H](C(=O)N[C@@H](Cc2c[nH]c3ccccc23)C(=O)N2CCC[C@H]2C(N)=O)NC(=O)[C@H](CC(=O)O)NC(=O)[C@H](Cc2cnc[nH]2)NC(=O)[C@H](Cc2cccc3ccccc23)NC(=O)[C@H](CC(N)=O)NC(=O)[C@H](CC(N)=O)NC1=O (stereo partly drawn) [compound 56, DOTA-Ahx-W-T-I-C(3)-N-N-(1Nal)-H-D-C(3)-W-P-CONH2] ({DOTA-Ahx}-WT[ξIle]CNN[1Nal]HDCWP-NH2; disulfide 4-10) | 10 to 100 nM |
| CC[C@H](C)C(NC(=O)[C@@H](NC(=O)[C@H](Cc1c[nH]c2ccccc12)NC(=O)CCCCCNC(=O)CN1CCN(CC(=O)O)CCN(CC(=O)O)CCN(CC(=O)O)CC1)[C@@H](C)O)C(=O)N[C@H]1CSSC[C@@H](C(=O)N[C@@H](Cc2c[nH]c3ccccc23)C(=O)N2CCC[C@H]2C(N)=O)NC(=O)[C@H](CC(=O)O)NC(=O)[C@H](Cc2cnc[nH]2)NC(=O)[C@H](Cc2ccc3ccccc3c2)NC(=O)[C@H](CC(N)=O)NC(=O)[C@H](CC(N)=O)NC1=O (stereo partly drawn) [compound 57, DOTA-Ahx-W-T-I-C(3)-N-N-(2Nal)-H-D-C(3)-W-P-CONH2] ({DOTA-Ahx}-WT[ξIle]CNN[2Nal]HDCWP-NH2; disulfide 4-10) | 1 to 10 nM |
| CC[C@H](C)[C@H](NC(=O)[C@@H](NC(=O)[C@H](Cc1c[nH]c2ccc(F)cc12)NC(=O)CCCCCNC(=O)CN1CCN(CC(=O)O)CCN(CC(=O)O)CCN(CC(=O)O)CC1)[C@@H](C)O)C(=O)N[C@H]1CSSC[C@@H](C(=O)N[C@@H](Cc2c[nH]c3ccccc23)C(=O)N2CCC[C@H]2C(N)=O)NC(=O)[C@H](CC(=O)O)NC(=O)[C@H](Cc2cnc[nH]2)NC(=O)[C@H](Cc2c[nH]c3ccccc23)NC(=O)[C@H](CC(N)=O)NC(=O)[C@H](CC(N)=O)NC1=O [compound 58, DOTA-Ahx-(5Fluoro-W)-T-I-C(3)-N-N-W-H-D-C(3)-W-P-CONH2] ({DOTA-Ahx}-[Trp(5-F)]TICNNWHDCWP-NH2; disulfide 4-10) | 1 to 10 nM |
| CC[C@H](C)[C@H](NC(=O)[C@@H](NC(=O)[C@H](Cc1c[nH]c2ccccc12)NC(=O)CCCCCNC(=O)CN1CCN(CC(=O)O)CCN(CC(=O)O)CCN(CC(=O)O)CC1)[C@@H](C)O)C(=O)N[C@H]1CSSC[C@@H](C(=O)N[C@@H](Cc2c[nH]c3ccccc23)C(=O)N2CCC[C@H]2C(N)=O)NC(=O)[C@H](CC(=O)O)NC(=O)[C@H](Cc2cnc[nH]2)NC(=O)[C@H](Cc2c[nH]c3ccc(F)cc23)NC(=O)[C@H](CC(N)=O)NC(=O)[C@H](CC(N)=O)NC1=O [compound 59, DOTA-Ahx-W-T-I-C(3)-N-N-(5Fluoro-W)-H-D-C(3)-W-P-CONH2] ({DOTA-Ahx}-WTICNN[Trp(5-F)]HDCWP-NH2; disulfide 4-10) | 10 to 100 nM |
| CC[C@H](C)[C@H](NC(=O)[C@@H](NC(=O)[C@H](Cc1c[nH]c2ccccc12)NC(=O)CCCCCNC(=O)CN1CCN(CC(=O)O)CCN(CC(=O)O)CCN(CC(=O)O)CC1)[C@@H](C)O)C(=O)N[C@H]1CSSC[C@@H](C(=O)N[C@@H](Cc2c[nH]c3ccc(F)cc23)C(=O)N2CCC[C@H]2C(N)=O)NC(=O)[C@H](CC(=O)O)NC(=O)[C@H](Cc2cnc[nH]2)NC(=O)[C@H](Cc2c[nH]c3ccccc23)NC(=O)[C@H](CC(N)=O)NC(=O)[C@H](CC(N)=O)NC1=O [compound 60, DOTA-Ahx-W-T-I-C(3)-N-N-W-H-D-C(3)-(5Fluoro-W)-P-CONH2] ({DOTA-Ahx}-WTICNNWHDC[Trp(5-F)]P-NH2; disulfide 4-10) | 10 to 100 nM |
